According to patent publication US12459951B2, “Compounds that interact with RAS superfamily proteins for treatment of cancers, inflammatory diseases, rasopathies, and fibrotic disease” (SHY Therapeutics, LLC, priority 2022, dated 2025):

Experiments:
Rac-1 = target: T1, Rac-1 (Homo sapiens, UniProt P63000); test: Ras GTP Binding Domain Inhibition Assay (Ras Superfamily Assay); conditions: read-out: Rac-1: % inh.
T1 construct: made in house
In short: (§1)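 His-tagged GTPases immobilised on nickel-coated plates, pre-incubated with compound (20 μM single point, or serial dilution for IC50) 3 h at room temperature, with or without 10-30 μg/mL Sos (residues 556-1049) in the final hour. Bound Cy3- or Cy5-GTP (100 nM, 45 min) measured by fluorescence after washing.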

KRas wild type = test: as above; conditions: for KRas wild type + SOS: % inh.: with SOS; for KRas wild type: % inh.: without SOS
In short: as §1

KRas G12D mutant = test: as above; conditions: for KRas G12D mutant + SOS: % inh.: with SOS; for KRas G12D mutant: % inh.: without SOS
In short: as §1

TNF-alpha = TNF-alpha Quantification Assay (ELISA), LPS-stimulated RAW 264.7; type: cell-based; conditions: Mus musculus, RAW264.7; at 10 μM; read-out: TNFα: % inh.
Erk1/2 phosphorylation = test: Erk1/2 Phosphorylation Assay (western blot), Panc-1; type: cell-based, human; conditions: at 10 μM, * = activation
In short: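 Phospho-Erk1/2 (Thr202/Tyr204) was detected by western blot in lysates of Panc-1 cells (KRas G12D). These had 6 h, 37° C exposure to 10 μM compound or a dilution series for IC50, in 0.3% DMSO. Cells were either starved overnight in 0.5% FBS with a 15-min 1.5 ng/ml EGF pulse, or kept unstimulated in 10% FBS.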

IL6 = test: IL-6 Quantification Assay (ELISA), LPS-stimulated RAW 264.7; type: cell-based; set-up: inhibition: dose or concentration left out as unconfirmed; conditions: Mus musculus, RAW264.7; read-out: IL-6: % inh.

inhibition at 20 µM (Rac-1)	KRas wild type + SOS: % inh. (KRas wild type; 20 μM compound)	KRas wild type: % inh. (KRas wild type; 20 μM compound)	KRas G12D mutant + SOS: % inh. (KRas G12D mutant; 20 μM compound)	KRas G12D mutant: % inh. (KRas G12D mutant; 20 μM compound)	KRas wild type + SOS: % inh. (KRas wild type; at 20 μM)	KRas wild type: % inh. (KRas wild type; at 20 μM)	KRas G12D mutant + SOS: % inh. (KRas G12D mutant; at 20 μM)	KRas G12D mutant: % inh. (KRas G12D mutant; at 20 μM)	SMILES	inhibition at 10 µM (TNF-alpha)	% inh of Erk1/2 phosphorylation in Panc-1 (Erk1/2 phosphorylation)	inhibition (IL6)
76 to 100%	C (C = 50-75% inhibition)	C (C = 50-75% inhibition)	B (B = 26-49% inhibition)	D (D = 76-100% inhibition)	–	–	–	–	Cc1c(-c2ccn(C(C)C)n2)cn2nc(-c3nccn3C)nc(Nc3cnn(C(C)C)n3)c12 [Compound 77, 6-(1-Isopropyl-1H-pyrazol-3-yl)-N-(2-isopropyl-2H-1,2,3-triazol-4-yl)-5-methyl-2-(1-methyl-1H-imidazol-2-yl)pyrrolo[2,1-f][1,2,4]triazin-4-amine]	25 to 49%	D* (85-100% activation)	1 to 24%
0%	B (B = 26-49% inhibition)	B (B = 26-49% inhibition)	B (B = 26-49% inhibition)	B (B = 26-49% inhibition)	–	–	–	–	Cc1ccn2nc(-c3nccn3C)nc(N)c12.O=C(O)C(F)(F)F [Compound 37, 5-Methyl-2-(1-methyl-1H-imidazol-2-yl)pyrrolo[2,1-f][1,2,4]triazin-4-amine trifluoroacetic acid salt]	0%	0 (0% inhibition)	0%
76 to 100%	0 (0 = 0% inhibition)	B (B = 26-49% inhibition)	A (A = 1-25% inhibition)	0 (0 = 0% inhibition)	–	–	–	–	Cc1c(-c2ccn(C(C)C)n2)cn2nc(-c3nccn3C)nc(Nc3ncc(C4CC4)o3)c12 [Compound 90, 5-Cyclopropyl-N-(6-(1-isopropyl-1H-pyrazol-3-yl)-5-methyl-2-(1-methyl-1H-imidazol-2-yl)pyrrolo[2,1-f][1,2,4]triazin-4-yl)oxazol-2-amine]	1 to 24%	D* (85-100% activation)	0%
0%	A (A = 1-25% inhibition)	A (A = 1-25% inhibition)	A (A = 1-25% inhibition)	A (A = 1-25% inhibition)	–	–	–	–	Cn1ccnc1-c1nc(O)c2c(-c3ccccc3)ccn2n1 [Compound 39, 2-(1-Methyl-1H-imidazol-2-yl)-5-phenylpyrrolo[2,1-f][1,2,4]triazin-4-ol]	0%	0 (0% inhibition)	0%
0%	A (A = 1-25% inhibition)	A (A = 1-25% inhibition)	0 (0 = 0% inhibition)	B (B = 26-49% inhibition)	–	–	–	–	COC1CCCN(c2nc(-c3nccn3C)nn3cc(-c4ccn(C(C)C)n4)c(-c4ccccc4)c23)C1 (racemic) [Compound 21, rac 6-(1-Isopropyl-1H-pyrazol-3-yl)-4-(3-methoxypiperidin-1-yl)-2-(1-methyl-1H-imidazol-2-yl)-5-phenylpyrrolo[2,1-f][1,2,4]triazine]	0%	0 (0% inhibition)	1 to 24%
1 to 25%	0 (0 = 0% inhibition)	0 (0 = 0% inhibition)	A (A = 1-25% inhibition)	A (A = 1-25% inhibition)	–	–	–	–	COc1ncncc1Nc1nc(-c2nccn2C)nn2cc(-c3ccn(C(C)C)n3)c(C)c12 [Compound 88, 6-(1-Isopropyl-1H-pyrazol-3-yl)-N-(4-methoxypyrimidin-5-yl)-5-methyl-2-(1-methyl-1H-imidazol-2-yl)pyrrolo[2,1-f][1,2,4]triazin-4-amine]	1 to 24%	0 (0% inhibition)	1 to 24%
1 to 25%	A (A = 1-25% inhibition)	0 (0 = 0% inhibition)	0 (0 = 0% inhibition)	A (A = 1-25% inhibition)	–	–	–	–	CO[C@H]1CC[C@@H](Nc2nc(-c3nccn3C)nn3cc(-c4ccn(C(C)C)n4)c(C)c23)C1 (racemic) [Compound 1, rac 6-(1-Isopropyl-1H-pyrazol-3-yl)-N-((1R,3S)-3-methoxycyclopentyl)-5-methyl-2-(1-methyl-1H-imidazol-2-yl)pyrrolo[2,1-f][1,2,4]triazin-4-amine]	1 to 24%	0 (0% inhibition)	75 to 100%
0%	0 (0 = 0% inhibition)	0 (0 = 0% inhibition)	A (A = 1-25% inhibition)	0 (0 = 0% inhibition)	–	–	–	–	COc1ncccc1Nc1nc(-c2nccn2C)nn2cc(-c3ccn(C(C)C)n3)c(C)c12 [Compound 85, 6-(1-Isopropyl-1H-pyrazol-3-yl)-N-(2-methoxypyridin-3-yl)-5-methyl-2-(1-methyl-1H-imidazol-2-yl)pyrrolo[2,1-f][1,2,4]triazin-4-amine]	50 to 74%	C (50-84% inhibition)	75 to 100%
0%	A (A = 1-25% inhibition)	A (A = 1-25% inhibition)	0 (0 = 0% inhibition)	A (A = 1-25% inhibition)	–	–	–	–	COC[C@@H]1CC[C@@H]1CNc1nc(-c2nccn2C)nn2cc(-c3ccn(C(C)C)n3)c(-c3ccccc3)c12 (racemic) [Compound 20, rac 6-(1-Isopropyl-1H-pyrazol-3-yl)-N-(((1S,2R)-2-(methoxymethyl)cyclobutyl)methyl)-2-(1-methyl-1H-imidazol-2-yl)-5-phenylpyrrolo[2,1-f][1,2,4]triazin-4-amine]	1 to 24%	D (85-100% inhibition)	75 to 100%
76 to 100%	C (C = 50-75% inhibition)	D (D = 76-100% inhibition)	D (D = 76-100% inhibition)	D (D = 76-100% inhibition)	–	–	–	–	COc1cnc(Nc2nc(-c3nccn3C)nn3cc(-c4ccn(C(C)C)n4)c(C)c23)cn1 [Compound 83, 6-(1-Isopropyl-1H-pyrazol-3-yl)-N-(5-methoxypyrazin-2-yl)-5-methyl-2-(1-methyl-1H-imidazol-2-yl)pyrrolo[2,1-f][1,2,4]triazin-4-amine]	1 to 24%	D* (85-100% activation)	25 to 49%
0%	0 (0 = 0% inhibition)	A (A = 1-25% inhibition)	0 (0 = 0% inhibition)	A (A = 1-25% inhibition)	–	–	–	–	COc1cccc(Nc2nc(-c3nccn3C)nn3cc(-c4ccn(C(C)C)n4)c(C)c23)n1 [Compound 7, 6-(1-Isopropyl-1H-pyrazol-3-yl)-N-(6-methoxypyridin-2-yl)-5-methyl-2-(1-methyl-1H-imidazol-2-yl)pyrrolo[2,1-f][1,2,4]triazin-4-amine]	0%	0 (0% inhibition)	1 to 24%
26 to 49%	0 (0 = 0% inhibition)	C (C = 50-75% inhibition)	B (B = 26-49% inhibition)	C (C = 50-75% inhibition)	–	–	–	–	COCc1noc(Nc2nc(-c3nccn3C)nn3cc(-c4ccn(C(C)C)n4)c(C)c23)n1 [Compound 82, N-(6-(1-Isopropyl-1H-pyrazol-3-yl)-5-methyl-2-(1-methyl-1H-imidazol-2-yl)pyrrolo[2,1-f][1,2,4]triazin-4-yl)-3-(methoxymethyl)-1,2,4-oxadiazol-5-amine]	25 to 49%	A* (1-25% activation)	75 to 100%
26 to 49%	–	–	–	–	A (A = 1-25% inhibition)	B (B = 26-49% inhibition)	B (B = 26-49% inhibition)	B (B = 26-49% inhibition)	COc1cccc(-c2cn3nc(-c4nccn4C)nc(N[C@@H]4CC[C@@H](OC)C4)c3c2-c2ccccc2)c1C (racemic) [Compound 270, rac 6-(3-Methoxy-2-methylphenyl)-N-((1R,3R)-3-methoxycyclopentyl)-2-(1-methyl-1H-imidazol-2-yl)-5-phenylpyrrolo[2,1-f][1,2,4]triazin-4-amine]	75 to 100%	D (85-100% inhibition)	75 to 100%
